Reference: patent US6908628B2, “Disinfectant and antiseptic composition” (priority 2001, dated 2005)

What was measured:
Assay type in all cases: cell-based
[1] = system: spores of B subtilis; experiment: Sporicidal effect on commercial cellulose germ holder; details: reference disinfectant as such; 10 minutes
Procedure: In this case, another more demanding test was used, since the sporicidal effect was assessed. It is similar to the bactericidal effect, but instead of contaminated instruments, a commercial, cellulose germ holder was used, impregnated in spores. In fact, this is the biological control used in sterilisation by ethylene oxide: spores of B subtilis, at a concentration guaranteed by the manufacturer (3M) and which exceed a million spores per germ holder. The rest was similar to that described in the endodontic file method.

[2] = system: S. aureus, S. epidermidis, E. faecalis, E. coli, K. pneumoniae, E. cloacae, P. mirabilis, Acinetobacter baumanii, P. aeruginosa, C. albicans, Mycobacterium …; experiment: Bactericidal effect on endodontic files, whole panel of Example 1; details: 20 minutes
Procedure: For the determination of these three effects, the methods described by Herruzo et al in 1999 were used (Rev Stomatol Chir maxillofac 1999; 100: 299-305), which may be resumed as follows: • a) Bactericidal effect on instruments difficult to disinfect: No. 25 endodontic files.
These files are contaminated in a micro-organism for 30 minutes and after drying for 15 minutes in an oblique position, they are introduced in the disinfectant for 5, 10, 15, 20, etc. minutes. Afterwards, they are removed and submerged in a tube with glass beads and a disinfectant inhibitor (broth plus 6% Tween 80, plus 0.5% sodium bisulphite and 0.5% sodium thiosulphate). The tubes are then stirred for 1 minute to detach the surviving micro-organisms, and samples are cultured over the entire surface of agar plates with the culture medium suitable for the tested micro-organism (Müeller-Hinton or Saboureaud-dextrose for yeasts or HIB for mycobacteria, etc.). […] It is recorded if there was any deterioration or not and the time at which it occurred. […]

[3] = system: S. aureus; experiment: MIC in a solid medium; details: expressed as dilution of the product
From the text: (§1) This is shown by means of its MIC (minimum inhibiting concentration).
(§2) A MIC is obtained in a solid medium against S. aureus and P. aeruginosa.

[4] = system: P. aeruginosa; experiment: MIC in a solid medium; details: expressed as dilution of the product
From the text: as §1, §2

O=CCCCC=O [2% glutaraldehyde, glutaraldehyde]
reduction of the spore inoculum [1]: 1.5 log 10
bactericidal effect against Mycobacterium [2]: did not completely destroyed the inoculum

[H]/N=C(\N/C(=N/[H])NCCCCCCNC(=N)NC(=N)Nc1ccc(Cl)cc1)Nc1ccc(Cl)cc1 [Clo, Chlorhexidine]
MIC (minimum inhibiting concentration) [3]: 1/20480
MIC (minimum inhibiting concentration) [4]: 1/2560

Didecyl-metyl-polyoxy-ethyl-ammonium propionate
MIC (minimum inhibiting concentration) [3]: 1/20480
MIC (minimum inhibiting concentration) [4]: 1/160
